# Results: patent publication US20240384268A1, “Oligonucleotides” (Hudson Institute of Medical Research, priority 2021, published 2024)
# In the oligonucleotide strings, read from the 5' end, every base follows the letter of its sugar. An asterisk marks phosphorothioate; unmarked linkages are phosphodiester. Other units and linkages are bracketed, terminal groups are in braces. A string of capitals states the bases alone. d = 2'-deoxy (DNA); m = 2'-O-methyl
# Key:
# Type in all cases: cell-based
# cGAS [1] = target: T1, cGAS (Homo sapiens, UniProt Q8N884); assay: ISD70-driven IP-10 (and IFN-β) production in THP-1 cells, ELISA; parameters: endogenous in cells; host or cells: THP-1 (undifferentiated); settings: THP-1; 2′OMe or PS oligos, 100-250 nM, pre-treatment as in figure legends; ISD70 2.5 μg/ml
# T1 sequence (Q8N884 whole entry): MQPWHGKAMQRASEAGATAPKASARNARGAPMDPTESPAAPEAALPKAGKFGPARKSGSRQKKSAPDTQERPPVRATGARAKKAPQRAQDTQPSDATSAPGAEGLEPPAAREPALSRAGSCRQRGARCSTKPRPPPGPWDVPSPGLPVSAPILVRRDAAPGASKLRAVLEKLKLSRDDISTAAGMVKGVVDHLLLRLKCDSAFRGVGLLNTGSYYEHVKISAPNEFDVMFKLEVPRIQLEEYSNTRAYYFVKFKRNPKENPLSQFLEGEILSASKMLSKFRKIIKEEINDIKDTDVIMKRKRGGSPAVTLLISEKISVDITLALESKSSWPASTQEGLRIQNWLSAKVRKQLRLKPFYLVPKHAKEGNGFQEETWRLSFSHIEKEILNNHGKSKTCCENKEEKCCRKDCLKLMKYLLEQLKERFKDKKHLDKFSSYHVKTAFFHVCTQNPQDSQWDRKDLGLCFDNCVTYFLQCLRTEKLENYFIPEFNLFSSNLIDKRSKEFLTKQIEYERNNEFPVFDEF
# Method: The ability of an oligonucleotide to inhibit cGAS activity can, for example, be analysed by incubating cells which express cGAS with an oligonucleotide, then stimulating said cells with a cGAS agonist (e.g., 70-bp interferon stimulating DNA or ISD70; 45-bp interferon stimulating DNA or ISD45), and analysing the overall cGAS response in the cell population, or analysing the proportion of cells having cGAS-positive activity after a defined period of time.
# (§1) In such examples, inhibition of cGAS activity can be identified by observation of an overall decreased cGAS response of the cell population, or a lower proportion of cells having cGAS-positive activity as compared to positive control condition in which cells are treated with cGAS agonist in the absence of the oligonucleotide (or in the presence of an appropriate control inhibitory agent). In one example, THP-1 or HT-29 cells are transfected with ISD70 and incubated with an oligonucleotide. cGAS activity can then be determined by cytokine (e.g., IP-10 and/or IFNβ) expression (e.g., gene and/or protein expression) and/or secretion levels, such as by ELISA. A similar assay can be performed with LL171 cells transfected with ISD45. […] By way of example, cGAS enzymatic activity may be assessed in vitro using recombinant cGAS and then measuring activity thereof by way of a cGAMP ELISA.
# (§2) For cGAS stimulations, cells were treated for indicated duration with ASOs, prior to transfection with ISD70 (human cells) or ISD45 (mouse cells) (the ASOs were not washed off prior to ISD transfection unless otherwise indicated). The cGAS ligands ISD45 (Stetson and Medzhitov, 2006) and ISD70 (also known as VACV-70 (Unterholzner et al., 2010)) (Table 1) were resuspended as follows: 5 1d of sense and 5 μl of antisense strands at 10 μg/μl were added to 90 μl PBS under sterile conditions, heated at 75° C. for 30 min, prior to letting cool down at room temperature and aliquoting (stock at 1 μg/1 l). The ISDs were transfected at a concentration of […] at a ratio of 1 μg:1 μl with Lipofectamine 2000 in Opti-MEM (Thermo Fisher Scientific). HEK-TLR3, HEK-TLR7 and […] were treated with indicated concentration of ASOs for 20-50 min, prior to stimulation with poly(I:C) (Invivogen), R848 (Invivogen), Motolimod (MedChemExpress) and the Class B CpG oligonucleotides ODN 2006 (synthesised by IDT and resuspended in RNase-free TE buffer [Table 1]), respectively. The TLR2/1 agonist PAM3CSK4 (Invivogen), the TLR4 agonist lipopolysaccharide (Invivogen), the Class B CpG oligonucleotides ODN 1826 (synthesised by IDT and resuspended in RNase-free TE buffer), the mouse Sting agonist DMXAA (Cayman) and the human STING agonist (compound #3 from (Raanjulu et al., 2018), referred to as GSK herein—kind gift from Cancer Therapeutics CRC, Australia) were used at indicated concentrations. Aspirin (Sigma—A2093) was resuspended in pure medium to 10 mM, filter sterilised and added to the cells at 2 mM final. All ASOs were synthesised by Integrated DNA Technologies (IDT), and resuspended in RNase-free TE buffer, pH 8.0 (Thermo Fisher Scientific). Cell viability was assessed by adding 1× fresh resazurin solution to the wells (10λ solution made up with 7 mg resazurin [Sigma—R7017] dissolved in 3.5 ml PBS, sterile filtered at […]) for 4 h, prior to reading at with a Fluostar OPTIMA (BMG LABTECH) plate-reader (fluorescence: Excitation 535 nm, Emission 590); wells with medium only and 1× resazurin were used as blanks.
# mouse cGAS = target: T2, mouse cGAS (Mus musculus, UniProt Q8C6L5); assay: ISD45-driven ISRE-luciferase in mouse LL171 cells; settings: 2′OMe or PS oligos 50-600 nM, ISD45 2.5 μg/ml overnight
# T2 construct: endogenous in cells; host or cells: LL171 (mouse L929 cells with ISRE-Luciferase)
# T2 sequence (Q8C6L5 whole entry): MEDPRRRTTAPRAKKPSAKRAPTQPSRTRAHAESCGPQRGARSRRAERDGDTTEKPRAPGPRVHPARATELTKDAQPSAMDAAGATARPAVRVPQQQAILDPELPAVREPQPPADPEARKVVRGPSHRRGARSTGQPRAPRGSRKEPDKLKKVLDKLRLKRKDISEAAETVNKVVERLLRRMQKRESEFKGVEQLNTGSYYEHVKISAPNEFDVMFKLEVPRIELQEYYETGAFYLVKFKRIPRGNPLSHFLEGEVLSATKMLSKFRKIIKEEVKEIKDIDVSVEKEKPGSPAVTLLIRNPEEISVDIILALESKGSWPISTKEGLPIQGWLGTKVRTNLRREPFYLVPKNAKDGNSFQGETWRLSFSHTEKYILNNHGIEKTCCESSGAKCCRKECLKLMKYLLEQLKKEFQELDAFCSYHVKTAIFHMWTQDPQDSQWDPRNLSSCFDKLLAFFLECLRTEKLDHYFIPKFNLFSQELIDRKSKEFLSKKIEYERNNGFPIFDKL
# Method: as §1, §2
# Following transfection, the cells were collected from the 6-wells and aliquoted into 96-wells, just before ASO and overnight TLR stimulation (as above described).
# TLR3 = target: T3, TLR3 (Homo sapiens, UniProt O15455); assay: HEK-TLR3 NF-κB-luciferase reporter, poly(I:C) stimulation; parameters: host or cells: HEK-Blue hTLR3 (HEK293); settings: 100 nM ASOs/ODNs, poly(I:C) 0.5 μg/ml
# T3 sequence (O15455 24-904): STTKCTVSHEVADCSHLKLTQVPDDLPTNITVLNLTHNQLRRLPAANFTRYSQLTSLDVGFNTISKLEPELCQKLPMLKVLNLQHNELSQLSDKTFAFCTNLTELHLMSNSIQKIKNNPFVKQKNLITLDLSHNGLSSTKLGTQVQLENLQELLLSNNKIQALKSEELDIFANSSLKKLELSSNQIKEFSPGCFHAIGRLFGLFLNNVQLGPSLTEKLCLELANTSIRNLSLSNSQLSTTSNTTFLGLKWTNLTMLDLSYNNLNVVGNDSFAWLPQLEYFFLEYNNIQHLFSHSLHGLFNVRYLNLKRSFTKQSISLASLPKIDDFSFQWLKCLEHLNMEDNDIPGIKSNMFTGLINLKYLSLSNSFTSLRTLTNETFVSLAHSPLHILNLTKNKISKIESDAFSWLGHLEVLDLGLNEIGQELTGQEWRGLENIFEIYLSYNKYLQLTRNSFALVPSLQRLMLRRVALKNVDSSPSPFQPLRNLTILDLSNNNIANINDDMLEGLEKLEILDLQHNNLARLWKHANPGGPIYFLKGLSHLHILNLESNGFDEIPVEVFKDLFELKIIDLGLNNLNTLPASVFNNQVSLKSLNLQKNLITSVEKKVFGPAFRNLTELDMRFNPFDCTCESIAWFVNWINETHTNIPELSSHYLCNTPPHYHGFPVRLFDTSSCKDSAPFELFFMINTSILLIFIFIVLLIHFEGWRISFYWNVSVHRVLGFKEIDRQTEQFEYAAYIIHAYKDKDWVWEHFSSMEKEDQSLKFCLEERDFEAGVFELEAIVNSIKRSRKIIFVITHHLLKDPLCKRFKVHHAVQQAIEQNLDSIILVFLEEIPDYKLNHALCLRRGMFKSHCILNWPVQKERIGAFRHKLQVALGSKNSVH
# human TLR9 = target: T4, human TLR9 (Homo sapiens, UniProt Q9NR96); assay: HEK-TLR9 NF-κB-luciferase reporter, ODN2006 stimulation; settings: HEK-TLR9; 500 nM 2′OMe or PS oligos; 200 nM ODN2006
# T4 construct: HA; host or cells: 293XL-hTLR9-HA (HEK293)
# T4 sequence (Q9NR96 26-1032): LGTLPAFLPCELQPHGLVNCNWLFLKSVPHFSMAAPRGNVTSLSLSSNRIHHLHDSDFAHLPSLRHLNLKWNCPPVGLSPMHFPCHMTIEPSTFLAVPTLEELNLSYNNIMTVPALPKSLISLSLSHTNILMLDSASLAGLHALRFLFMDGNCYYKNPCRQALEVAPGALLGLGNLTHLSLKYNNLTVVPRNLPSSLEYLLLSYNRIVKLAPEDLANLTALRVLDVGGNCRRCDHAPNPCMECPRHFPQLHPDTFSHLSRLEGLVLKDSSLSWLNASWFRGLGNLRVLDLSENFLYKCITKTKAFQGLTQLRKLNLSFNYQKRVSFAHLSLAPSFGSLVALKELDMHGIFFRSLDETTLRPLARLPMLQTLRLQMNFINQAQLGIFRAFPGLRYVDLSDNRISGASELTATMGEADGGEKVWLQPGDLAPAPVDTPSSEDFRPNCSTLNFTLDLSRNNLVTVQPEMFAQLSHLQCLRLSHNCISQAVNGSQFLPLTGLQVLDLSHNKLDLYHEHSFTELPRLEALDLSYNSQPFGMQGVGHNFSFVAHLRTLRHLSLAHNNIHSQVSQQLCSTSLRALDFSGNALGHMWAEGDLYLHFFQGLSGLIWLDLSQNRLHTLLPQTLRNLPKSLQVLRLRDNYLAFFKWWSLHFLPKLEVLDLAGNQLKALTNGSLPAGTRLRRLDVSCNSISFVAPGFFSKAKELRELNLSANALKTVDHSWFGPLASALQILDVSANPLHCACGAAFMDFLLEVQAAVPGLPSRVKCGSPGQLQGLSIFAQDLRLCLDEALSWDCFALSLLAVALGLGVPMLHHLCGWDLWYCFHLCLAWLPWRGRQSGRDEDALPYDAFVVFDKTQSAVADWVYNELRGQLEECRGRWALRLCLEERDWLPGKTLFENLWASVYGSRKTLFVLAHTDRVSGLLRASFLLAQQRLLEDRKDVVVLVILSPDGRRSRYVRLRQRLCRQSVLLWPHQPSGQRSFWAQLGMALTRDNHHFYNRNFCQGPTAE
# Method: In such examples, inhibition of TLR9 activity can be identified by observation of an overall decreased TLR9 response of the cell population, or a lower proportion of cells having TLR9-positive activity as compared to positive control condition in which cells are treated with TLR9 agonist in the absence of the oligonucleotide (or in the presence of an appropriate control inhibitory agent). In one example, HEK cells are transfected with TLR9 and a NF-κB reporter and incubated with an oligonucleotide and then stimulated with a TLR9 agonist. TLR9 activity can then be determined by a luciferase assay. TLR9 activity can also be analysed by measuring cytokine levels (e.g., IFN, IL-6, TNF and IL-12), for example by ELISA.
# as §2
# Following transfection, the cells were collected from the 6-wells and aliquoted into 96-wells, just before ASO and overnight TLR stimulation (as above described). Similarly, the LL171 cells expressing and ISRE-Luc reporter were treated overnight. The next day, the cells were lysed in 40 μl (for a 96-well plate) of 1× Glo Lysis buffer (Promega) for 10 min at room temperature. […] was then subjected to firefly luciferase assay using 40 μl of Luciferase Assay Reagent (Promega). Luminescence was quantified with a Fluostar OPTIMA (BMG LABTECH) luminometer.
# cGAS [2] = target: T1, cGAS; assay: ISD70-driven IP-10 production in HT-29 cells, ELISA; parameters: endogenous in cells; settings: ISD70 24 h; for effect on ISD70-induced IP-10 production at increased doses (in words): ASO overnight at 250 or 500 nM; for effect on ISD70-induced IP-10 production at low dose (in words): ASO overnight at 125 nM (62.5-125 nM)
# Method: as §1, §2
# Human IP-10 and IFN-β levels were measured using supernatants from the different cultures and were quantified using IP-10 (BD Biosciences, #550926) or IFN-β (PBL assay science, #41415-1) ELISA kits respectively, according to the manufacturers' protocol. Tetramethylbenzidine substrate (Thermo Fisher Scientific) was used for quantification of the cytokines on a Fluostar OPTIMA (BMG LABTECH) plate-reader.
Substance,inhibition of TLR9 sensing of ODN2006 (in words) (human TLR9),effect on ISD70-induced IP-10 production at low dose (in words) (cGAS [2]),also measured
"G*C*G*G*T*A*T*C*C*A*T*G*T*C*C*C*A*G*G*C (GCGGTATCCATGTCCCAGGC; DNA, all phosphorothioate, methylation of C not given here) [C2-Mut1-PS]",,,inhibition of ISD70-driven IP-10 production (in words) (cGAS [1]): significantly decreased; inhibition of ISD45-driven ISRE-luciferase (in words) (mouse cGAS): significantly decreased
mG*mG*mU*mC*mU*T*G*G*C*T*T*C*G*T*G*mG*mA*mG*mC*mA (mG*mG*mU*mC*mU*dT*dG*dG*dC*dT*dT*dC*dG*dT*dG*mG*mA*mG*mC*mA; antisense) [ASO5],significantly inhibited TLR9 sensing of ODN2006,,inhibition of polyI:C sensing by TLR3 at 100 nM (in words) (TLR3): retained significant inhibition of polyL:C sensing
mU*mG*mA*mU*mU*C*C*A*A*A*G*C*C*A*G*mG*mG*mU*mU*mA (mU*mG*mA*mU*mU*dC*dC*dA*dA*dA*dG*dC*dC*dA*dG*mG*mG*mU*mU*mA) [ASO10],significantly inhibited TLR9 sensing of ODN2006,,effect on ISD70-induced IP-10 production at increased doses (in words) (cGAS [2]): blocked ISD70-induced IP-10 production
"mG*mC*mG*mG*mU*A*T*A*C*A*G*G*T*C*C*mC*mA*mG*mG*mC (GCGGUATACAGGTCCCAGGC; sugars from the 5' end m5 d10 m5, all phosphorothioate, methylation of C not given here) [C2-Mut2]",,increased inhibitory activity,
mU*mC*mC*mG*mG*C*C*T*C*G*G*C*A*G*A*mU*mA*mU*mC*mG (mU*mC*mC*mG*mG*dC*dC*dT*dC*dG*dG*dC*dA*dG*dA*mU*mA*mU*mC*mG; antisense) [ASO2down],significantly reduced TLR9 inhibition,significantly increased IP-10 production,inhibition of ISD70-driven IP-10 production (in words) (cGAS [1]): significantly less inhibitory than ASO2up
mU*mC*mC*mG*mG*C*C*T*C*G*G*A*G*T*C*mU*mC*mC*mA*mU (mU*mC*mC*mG*mG*dC*dC*dT*dC*dG*dG*dA*dG*dT*dC*mU*mC*mC*mA*mU; antisense) [ASO2up],,more potent inhibitor of ISD70-driven IP-10 production than ASO2,
"mC*mU*mU*mU*mA*G*T*C*G*T*A*G*T*T*G*mC*mU*mU*mC*mC (CUUUAGTCGTAGTTGCUUCC; sugars from the 5' end m5 d10 m5, all phosphorothioate, methylation of C not given here) [ASO11]",lacked the capacity to inhibit TLR9,,effect on ISD70-induced IP-10 production at increased doses (in words) (cGAS [2]): blocked ISD70-induced IP-10 production
